Among the data in paper PMC6819783, “Cohnella sp. A01 laccase: thermostable, detergent resistant, anti-environmental and industrial pollutants enzyme” (Heliyon, 2019) are Km values, retold here.

Molecules are shown by their SMILES.

The test deals with T1, Cohnella sp. A01 laccase.
T1 construct: gene multicopper oxidase; recombinant in E. coli BL21, pET-26b(+) NcoI/XhoI, His-tagged, Ni-Sepharose purified
In words: oxidation followed at […] nm, Michaelis-Menten fit. Type of test: biochemical. As to conditions: 0.3-2.5 mM DMP; phosphate buffer; assay pH 8 and 90 °C (optimum; not restated for the kinetics).

As to `COc1cccc(OC)c1O` [2,6-dimethoxyphenol], the Michaelis constant (Km) is 686 µM.
